Series [1] deals with T1, TaVpol (TaV RdRP domain) (Thosea asigna virus, UniProt Q6A562). Nature of the series: X-ray crystal structure, […] Å. Conditions: MgCl2; triphosphate in rNTP tunnel (nucleoside disordered); second site in thumb subdomain (M556, T560, D563, E601). Details: RdRP domain, first 674 residues of replicase ORF1 (1257 residues), 75 kDa fragment released by proteolysis in Hi5 insect cells; N-terminal 6xHis tag and TEV site, tag cut for biochemical assays; dimer. The format is binding.

In series [2] the target is TaVpol (RdRP domain of Thosea asigna virus ORF1, first 674 residues) (Thosea asigna virus). In words: SEC; analytic chromatography on a calibrated Superdex 200 5/150 column of purified proteins; for TaVpol also the final purification step on Superdex 200 HR 10/300 (50 mM MES pH 6.0, 500 mM NaCl, 10% glycerol, 5 mM DTT). Background: SEC sorts molecules by how far they enter the pores of the column.

Series [3] concerns the target T1, TaVpol (TaV RdRP domain). Nature of the series: X-ray crystal structure, […] Å. Set-up: RdRP domain, first 674 residues of replicase ORF1 (1257 residues), 75 kDa fragment released by proteolysis in Hi5 insect cells; N-terminal 6xHis tag and TEV site, tag cut for biochemical assays; dimer. Conditions: MgCl2; triphosphate in rNTP tunnel (nucleoside disordered); second site in thumb subdomain (M556, T560, D563, E601). In kind it is binding. The source holds these as a separate data set.

Series [4] concerns the target T1, TaVpol (TaV RdRP domain). To be noted: MnCl2, ssRNA template 5'-[…]; active site of molecule B, base stacked on Y611 and F613 of loop λ6.
Series [5] deals with T2, TaVpol (RdRP-containing N-terminal fragment of ORF1) (Thosea asigna virus, UniProt Q6A562 1-674). In words: X-ray crystallography; Complex formation: 1 mg/ml TaVpol, 1:1.5 protein:RNA, 50 mM MES pH 6.0, 200 mM NaCl, 10% glycerol, 5 mM DTT, 30 C 30 min; crystals at 20 C in 12% PEG 8K, 750 mM Li2SO4. To be noted: protein: recombinant; tags: N-terminal 6xHis with TEV site (tag not removed for RNA complexes as far as stated); chain copies: 2; single strand.

Series [6] has as its target T2, TaVpol (RdRP-containing N-terminal …). In words: X-ray crystallography; ATP, CTP, 5 mM MnCl2; 3.5 A; RNA density weak, only phosphate peaks in template channel, RNA not built; Complex formation: 1 mg/ml TaVpol, 1:1.5 protein:RNA, 50 mM MES pH 6.0, 200 mM NaCl, 10% glycerol, 5 mM DTT, 30 C 30 min; crystals at 20 C in 12% PEG 8K, 750 mM Li2SO4. Conditions: protein: recombinant; tags: N-terminal 6xHis with TEV site (tag not removed for RNA complexes as far as stated); chain copies: 2; single strand.

From paper PMC4666646, “The Structure of the RNA-Dependent RNA Polymerase of a Permutotetravirus Suggests a Link between Primer-Dependent and Primer-Independent Polymerases” (PLoS Pathogens, 2015) come the findings set out here.

In general, stoichiometry N refers to the number of molecules, sites or subunits per partner or assembly.

As to `Nc1ccn([C@@H]2O[C@H](COP(=O)(O)OP(=O)(O)OP(=O)(O)O)[C@@H](O)[C@H]2O)c(=O)n1` [CTP], the “X-ray crystal structure, 2.25 Å” value in series [1] is “TaVpol-GTP and TaVpol-CTP co-crystals were also obtained in presence of MgCl2”.

“TaVpol (RdRP domain of Thosea asigna virus ORF1, first 674 residues) (domain or fragment)” registered a stoichiometry N in series [2] of 2. Take `Nc1nc2c(ncn2[C@@H]2O[C@H](COP(=O)(O)OP(=O)(O)OP(=O)(O)O)[C@@H](O)[C@H]2O)c(=O)[nH]1` [GTP]: the “X-ray crystal structure, 2.3 Å” value in series [3] was “TaVpol-GTP and TaVpol-CTP co-crystals were also obtained in presence of MgCl2”. On to `Nc1ncnc2c1ncn2[C@@H]1O[C@H](COP(=O)(O)OP(=O)(O)OP(=O)(O)O)[C@@H](O)[C@H]1O` [ATP], for which, in series [4], the “X-ray crystal structure, 3.5 Å” value was “This density, was interpreted as the presence of a bound ATP molecule”.

B1: 25-nt ssRNA template (ssRNA)
RNA: GUAUACUACACCCAUUCGACUCCUG
Consider B1, for which the binding result in series [5] is “binds”.

B2: 15-nt ssRNA template (ssRNA)
RNA: CCCAUUCGACUCCUG
For the molecule B2, the binding result in series [6] is listed as “binds”.
